Experimental data published in PubChem BioAssay (NCI).
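Results reflect a 48-hour exposure of cells in 96-well plates to compound at five concentrations. TGI: total growth inhibition.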

Experiments:
Experiment in all cases: NCI tumour cell line growth inhibition, 48 h
[1] = test system: MDA-N
[2] = test system: P388 leukemia
[3] = test system: P388/ADR leukemia
[4] = test system: SN12K1 renal

## CN1C(=O)c2ccccc2NC(=O)C12O[C@@H]2c1cccc(O)c1 (stereo partly specified)
[1]
  TGI: > 100 µM

## COc1cc2c(c(OC)c1OC)-c1c(cc3c(c1OC)OCO3)C1OC2C(C)C1C (stereo unspecified) (tested in a mixture with another compound)
[1]
  TGI: > 100 µM

## c1cc2c(ncc3cscc32)s1
[1]
  TGI: > 100 µM

## Cc1ccc2c(c1)CN(C(=O)CCC(=O)OCc1ccccc1)c1ccc(C)cc1CN2C(=O)CCC(=O)OCc1ccccc1
[1]
  TGI: > 100 µM

## Cc1nc(-c2ccccc2)c(-c2ccccc2)s1
[1]
  TGI: 35.1 µM

## Nc1ncn(C2CC(O)C(CO)O2)c(=O)n1 (stereo unspecified)
[1]
  TGI: 7.2 µM
[2]
  TGI: 142 µM
[3]
  TGI: 226 µM
[4]
  TGI: > 375 µM

## CNc1nc(N)c(N=O)c(Nc2ccc(Br)cc2)n1
[1]
  TGI: > 100 µM

## CS(=O)(=O)c1cc(=O)c2ccccc2s1
[1]
  TGI: 16.2 µM

## CO[C@H]1C=C[C@@]23c4cc5c(cc4CO[C@]2(O)CN(C)[C@H]3C1)OCO5
[1]
  TGI: > 100 µM

## Cn1cnc([N+](=O)[O-])c1[Se]c1nc(N)nc2c1ncn2C1OC(CO)C(O)C1O (stereo unspecified)
[1]
  TGI: > 100 µM

## CC(C)(C)c1ccc(O)c(CN(Cc2cc(C(C)(C)C)ccc2O)c2ccccc2)c1
[1]
  TGI: 30.4 µM

## CC(C)CCCC(=O)CCCCCCC(=O)CCN(O)C(=O)C(N)CO (stereo unspecified)
[1]
  TGI: 49.4 µM

## CSc1nc2cc(S(=O)(=O)N3CCCCC3)ccc2s1
[1]
  TGI: > 100 µM
